Assay results from patent US9725414B2, “Fungicidal N-bicycloalkyl and N-tricycloalkyl pyrazole-4-(thio)carboxamide derivatives” (priority 2011, dated 2017).

Legend:
[1] = system: Alternaria brassicae; test: Example D: in vivo preventive test on Alternaria brassicae (leaf spot on radish); settings: 500 ppm of active ingredient, grading 6 days after contamination
In short: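 Radish plants at cotyledon stage were sprayed with compound; controls got the acetone/tween/DMSO/water mix alone. After 24 h they were inoculated with Alternaria brassicae spores (50 000 spores per mL) and kept at 20 °C, 100% relative humidity. % efficacy versus controls was graded 6 days post-inoculation.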

[2] = system: Pyrenophora teres; test: Example E: in vivo preventive test on Pyrenophora teres (barley), DMF/emulsifier preparation; settings: 500 ppm of active ingredient, evaluated 7-9 days after inoculation
In short: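 Young barley plants sprayed preventively with compound formulated in DMF/alkylaryl polyglycol ether emulsifier and diluted in water. One day later inoculated with aqueous Pyrenophora teres spore suspension, then held 48 h at 22 °C and 100% relative humidity.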

SMILES	Efficacy [1]	Efficacy [2]
Cn1nc(C(F)F)c(C(=O)N(C2CC2)C2CCCC3CCCC32)c1F (stereo not shown) [Example 19]	100%	–
Cn1nc(C(F)F)c(C(=O)N(CC2(Cc3ccccc3)CC3CCC2C3)C2CC2)c1F (stereo not shown) [Example 69]	96%	–
Cn1nc(C(F)F)c(C(=O)N(CC2CC3CCC2C3)C2CC2)c1F (stereo not shown) [Example 71]	–	100%
CC(C1CC2CCC1C2)N(C(=O)c1c(C(F)F)nn(C)c1F)C1CC1 (stereo not shown) [Example 93]	–	100%
